Test results taken from patent publication US20230014445A1, “ALLOSTERIC CHROMENONE INHIBITORS OF PHOSPHOINOSITIDE 3-KINASE (PI3K) FOR THE TREATMENT OF DISEASE” (Petra Pharma Corporation, priority 2021, published 2023).
Read-outs that look alike come from different tables or passages of the source.

Tests used:
[1] = molecular target: T1, human full length PIK3KA H1047R mutant (p110α/p85α complex) (Homo sapiens, UniProt P42336, H1047R); assay: PI3K-Alpha Kinase (PIK3CA) biochemical activity, H1047R mutant (ADP-Glo); details: Soy PI lipid substrate, 20 uM ATP
T1 construct: Recombinant, catalytically active human full length PIK3KA Wild-type and H1047R mutant were purchased; 6xHis (N); purchased EMD Millipore Sigma 14-792M
T1 sequence (P42336 whole entry H1047R): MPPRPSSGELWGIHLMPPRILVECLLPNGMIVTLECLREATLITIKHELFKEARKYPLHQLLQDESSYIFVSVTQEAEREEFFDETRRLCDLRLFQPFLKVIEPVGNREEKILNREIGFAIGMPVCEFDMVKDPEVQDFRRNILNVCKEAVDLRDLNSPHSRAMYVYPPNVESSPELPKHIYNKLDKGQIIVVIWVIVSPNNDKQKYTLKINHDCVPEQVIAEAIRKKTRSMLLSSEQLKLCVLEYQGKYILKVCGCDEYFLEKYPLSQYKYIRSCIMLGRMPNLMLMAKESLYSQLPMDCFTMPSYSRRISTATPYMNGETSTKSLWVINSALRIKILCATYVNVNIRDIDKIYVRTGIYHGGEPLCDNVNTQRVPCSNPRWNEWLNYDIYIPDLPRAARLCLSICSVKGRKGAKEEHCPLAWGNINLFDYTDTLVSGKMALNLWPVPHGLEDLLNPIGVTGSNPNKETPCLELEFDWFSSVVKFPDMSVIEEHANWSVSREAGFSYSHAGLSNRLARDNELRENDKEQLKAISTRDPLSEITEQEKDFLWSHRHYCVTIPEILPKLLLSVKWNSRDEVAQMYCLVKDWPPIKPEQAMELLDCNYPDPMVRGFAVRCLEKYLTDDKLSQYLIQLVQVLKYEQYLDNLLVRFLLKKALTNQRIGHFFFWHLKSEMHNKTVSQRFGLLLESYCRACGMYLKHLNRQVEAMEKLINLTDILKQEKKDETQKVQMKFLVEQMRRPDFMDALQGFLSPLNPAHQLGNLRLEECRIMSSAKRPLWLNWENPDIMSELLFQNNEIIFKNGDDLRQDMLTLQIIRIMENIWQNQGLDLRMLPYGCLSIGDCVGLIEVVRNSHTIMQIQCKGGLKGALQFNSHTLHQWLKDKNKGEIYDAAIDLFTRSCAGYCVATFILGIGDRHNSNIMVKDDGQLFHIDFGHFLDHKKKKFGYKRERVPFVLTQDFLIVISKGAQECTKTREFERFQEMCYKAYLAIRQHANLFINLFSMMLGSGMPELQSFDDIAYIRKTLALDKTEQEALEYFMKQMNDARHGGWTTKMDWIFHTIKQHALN
T1 sequence (P27986 whole entry partner): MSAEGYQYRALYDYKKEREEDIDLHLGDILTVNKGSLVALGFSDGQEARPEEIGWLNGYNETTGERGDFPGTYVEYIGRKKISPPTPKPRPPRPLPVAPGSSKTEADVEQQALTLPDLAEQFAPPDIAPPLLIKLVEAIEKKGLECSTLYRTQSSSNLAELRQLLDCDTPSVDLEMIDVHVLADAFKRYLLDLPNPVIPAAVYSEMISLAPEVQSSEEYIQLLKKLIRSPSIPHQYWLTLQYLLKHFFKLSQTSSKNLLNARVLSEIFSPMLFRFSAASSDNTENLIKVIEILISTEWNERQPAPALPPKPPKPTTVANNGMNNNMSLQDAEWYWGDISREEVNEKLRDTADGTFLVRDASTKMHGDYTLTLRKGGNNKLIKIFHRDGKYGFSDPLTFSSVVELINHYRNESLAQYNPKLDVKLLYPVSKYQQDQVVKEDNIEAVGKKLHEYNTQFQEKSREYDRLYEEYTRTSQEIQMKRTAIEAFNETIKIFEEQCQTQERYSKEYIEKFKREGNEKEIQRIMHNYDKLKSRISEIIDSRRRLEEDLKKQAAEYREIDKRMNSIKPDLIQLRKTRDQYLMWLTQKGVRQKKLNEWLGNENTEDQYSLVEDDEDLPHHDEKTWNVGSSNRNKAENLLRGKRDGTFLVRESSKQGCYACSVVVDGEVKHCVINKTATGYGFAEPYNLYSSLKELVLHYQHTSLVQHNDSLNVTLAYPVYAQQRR
Summary of the method: (§1)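 ADP formation, measured by ADP-Glo luminescence after reaction to about 10% ATP conversion at 27° C., gives 10-point 4-parameter IC50 curves normalized to no-enzyme and DMSO controls. Lipid substrate was PIP2diC8 or Soy PI at 50 uM, with 20 uM ATP. WT or H1047R p110α/p85α complex (1-5 nM) was preincubated 1 h with compound.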

[2] = molecular target: T2, human full length PIK3KA Wild-type (p110α/p85α complex) (Homo sapiens, UniProt P42336); assay: PI3K-Alpha Kinase (PIK3CA) biochemical activity, wild-type (ADP-Glo); details: Soy PI lipid substrate, 20 uM ATP
T2 construct: Recombinant, catalytically active human full length PIK3KA Wild-type and H1047R mutant were purchased; 6xHis (N); purchased EMD Millipore Sigma 14-602M
Summary of the method: as §1

[3] = molecular target: PI3K-α (PIK3CA) in MDA-MB-453 cells (Homo sapiens, UniProt P42336); assay: PI3K-Alpha Kinase (PIK3CA) activity in vitro cell based assay (AlphaLisa SureFire)
PI3K-α (PIK3CA) in MDA-MB-453 cells, sequence (P42336 whole entry): as the sequence (P42336 whole entry H1047R) above, with R1047H counted along it
PI3K-α (PIK3CA) in MDA-MB-453 cells, sequence (P27986 2-724, further chain): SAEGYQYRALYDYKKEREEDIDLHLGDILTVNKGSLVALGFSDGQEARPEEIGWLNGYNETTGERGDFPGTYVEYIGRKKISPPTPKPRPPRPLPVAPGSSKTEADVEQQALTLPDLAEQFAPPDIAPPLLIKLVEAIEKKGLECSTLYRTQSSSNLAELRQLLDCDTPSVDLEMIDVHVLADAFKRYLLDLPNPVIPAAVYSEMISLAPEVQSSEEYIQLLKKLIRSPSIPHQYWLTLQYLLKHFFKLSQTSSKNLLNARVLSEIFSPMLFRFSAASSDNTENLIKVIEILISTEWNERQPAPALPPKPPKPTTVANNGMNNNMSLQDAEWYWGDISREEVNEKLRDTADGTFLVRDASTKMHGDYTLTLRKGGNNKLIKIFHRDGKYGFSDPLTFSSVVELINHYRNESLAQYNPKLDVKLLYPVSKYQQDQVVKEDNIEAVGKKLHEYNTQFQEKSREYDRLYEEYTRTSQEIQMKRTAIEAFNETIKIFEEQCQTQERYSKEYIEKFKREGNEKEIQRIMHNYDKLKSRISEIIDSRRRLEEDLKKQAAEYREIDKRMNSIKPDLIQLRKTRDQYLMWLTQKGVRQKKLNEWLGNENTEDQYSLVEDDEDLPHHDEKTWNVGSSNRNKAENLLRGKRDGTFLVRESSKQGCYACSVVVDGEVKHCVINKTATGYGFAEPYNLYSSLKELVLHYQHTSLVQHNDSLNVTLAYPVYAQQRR
Summary of the method: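 Serum-free MDA-MB-453 cells with 1 μg/mL insulin treated 3 h with a 10-point compound series in 0.3% DMSO; lysates analysed by AlphaLisa SureFire. Relative IC50 from 4-parameter fit of % inhibition versus DMSO (max) and 1 μM GDC-0032 (min) controls, duplicates.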

[4] = 0% FBS, 3 hours treatment, read-out: PI3K-α (PIK3CA) in vitro cell based assay IC50

Row | Structure (SMILES) | IC50 [1] | IC50 [2] | IC50 [3, 4] | IC50 ([3]; read-out: PI3K-α (PIK3CA) in vitro cell based assay IC50, 0% FBS, 3 hours treatment)
1 | Cc1cc(C(C)Nc2cccc(F)c2C(=O)O)c2oc(-c3ccccn3)cc(=O)c2c1 (single isomer, unassigned; isomer 2) [Example 111, 2-Fluoro-6-[1-[6-methyl-4-oxo-2-(2-pyridyl)chromen-8-yl]ethylamino]benzoic acid, Isomer 2] | 1000 to 5000 nM | 1000 to 5000 nM | > 500 nM | –
2 | Cc1cc(C(C)Nc2ccc(C)nc2C(=O)O)c2oc(-c3cccnc3)c(C)c(=O)c2c1 (single isomer, unassigned; isomer 1) [Example 118, 3-[1-[3,6-Dimethyl-4-oxo-2-(3-pyridyl)chromen-8-yl]ethylamino]-6-methyl-pyridine-2-carboxylic acid, Isomer 1] | < 500 nM | 1000 to 5000 nM | 50 to 100 nM | –
3 | COc1ccccc1-n1cc(-c2oc3c(C(C)Nc4ccccc4C(=O)O)cc(C)cc3c(=O)c2C)cn1 (single isomer, unassigned) [Example 70, 2-[1-2-[1-(2-Methoxyphenyl)pyrazol-4-yl]-3,6-dimethyl-4-oxo-chromen-8-yl]ethylamino]benzoic acid, Isomer 1,2,2,2-trifluoroacetic acid] | 1000 to 5000 nM | 1000 to 5000 nM | – | < 50 nM

More lines, main results first:

Row | IC50 [1] | IC50 [2] | IC50 [3, 4] | Structure (SMILES) | IC50 ([3]; read-out: PI3K-α (PIK3CA) in vitro cell based assay IC50, 0% FBS, 3 hours treatment)
4 | > 10000 nM | > 10000 nM | > 500 nM | Cc1cc(C(C)Nc2ccccc2C(=O)O)c2oc(-c3cnn(-c4cccnc4)c3)cc(=O)c2c1 (single isomer, unassigned; isomer 1) [Example 49, 2-[1-[6-Methyl-4-oxo-2-[1-(3-pyridyl)pyrazol-4-yl]chromen-8-yl]ethylamino]benzoic acid, Isomer 1] | –
5 | < 500 nM | 1000 to 5000 nM | < 50 nM | Cc1cc(C(C)Nc2ccccc2C(=O)O)c2oc(-c3ccccn3)c(C)c(=O)c2c1 (single isomer, unassigned; isomer 1) [Example 24, 2-[1-[3,6-Dimethyl-4-oxo-2-(2-pyridyl)chromen-8-yl]ethylamino]benzoic acid, Isomer 1] | –
6 | < 500 nM | 1000 to 5000 nM | < 50 nM | Cc1cc(C(C)Nc2ccc(C(F)(F)F)nc2C(=O)O)c2oc(-c3cccnc3)c(C)c(=O)c2c1 (single isomer, unassigned; isomer 1) [Example 117, 3-[1-[3,6-Dimethyl-4-oxo-2-(3-pyridyl)chromen-8-yl]ethylamino]-6-(trifluoromethyl)pyridine-2-carboxylic acid, Isomer 1] | –
